Each block holds one molecule with its values, some of them ahead of it.
What was measured:
[1] = biological target: T1, human topoisomerase I (topo70) in covalent complex with duplex 22 mer DNA (Homo sapiens, UniProt P11387); assay: X-ray crystal structure of ternary topo70-DNA-compound complex; type: binding
T1 construct: residues 175 to 765 of the natural protein plus an N-terminal initiating methionine; initiating methionine (one added Met before residue 175) (N); made in house; host or cells: insect cells (recombinant baculovirus, pFastBac-topo70 wt)
T1 sequence (P11387 175-765): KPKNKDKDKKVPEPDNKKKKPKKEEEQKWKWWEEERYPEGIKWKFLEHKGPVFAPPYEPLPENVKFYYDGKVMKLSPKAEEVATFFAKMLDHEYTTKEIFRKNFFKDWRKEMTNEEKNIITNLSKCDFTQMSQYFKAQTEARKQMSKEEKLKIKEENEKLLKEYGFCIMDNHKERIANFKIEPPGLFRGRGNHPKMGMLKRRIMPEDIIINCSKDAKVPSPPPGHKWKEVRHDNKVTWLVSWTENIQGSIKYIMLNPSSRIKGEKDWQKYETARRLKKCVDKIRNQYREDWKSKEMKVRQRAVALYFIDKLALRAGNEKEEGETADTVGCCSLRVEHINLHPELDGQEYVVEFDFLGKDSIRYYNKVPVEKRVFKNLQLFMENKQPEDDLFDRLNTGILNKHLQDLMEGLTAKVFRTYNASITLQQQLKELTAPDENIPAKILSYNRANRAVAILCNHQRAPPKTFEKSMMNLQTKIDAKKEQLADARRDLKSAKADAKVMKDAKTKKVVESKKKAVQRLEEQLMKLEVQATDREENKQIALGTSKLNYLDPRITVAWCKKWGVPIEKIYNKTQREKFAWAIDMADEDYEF

[2] = biological target: T2, reconstituted "linker-less" human Topo I (Homo sapiens, UniProt P11387); conditions: Stewart et al., J. Biol. Chem. 1999; cited from earlier work
T2 sequence (P11387 175-659 limits assumed): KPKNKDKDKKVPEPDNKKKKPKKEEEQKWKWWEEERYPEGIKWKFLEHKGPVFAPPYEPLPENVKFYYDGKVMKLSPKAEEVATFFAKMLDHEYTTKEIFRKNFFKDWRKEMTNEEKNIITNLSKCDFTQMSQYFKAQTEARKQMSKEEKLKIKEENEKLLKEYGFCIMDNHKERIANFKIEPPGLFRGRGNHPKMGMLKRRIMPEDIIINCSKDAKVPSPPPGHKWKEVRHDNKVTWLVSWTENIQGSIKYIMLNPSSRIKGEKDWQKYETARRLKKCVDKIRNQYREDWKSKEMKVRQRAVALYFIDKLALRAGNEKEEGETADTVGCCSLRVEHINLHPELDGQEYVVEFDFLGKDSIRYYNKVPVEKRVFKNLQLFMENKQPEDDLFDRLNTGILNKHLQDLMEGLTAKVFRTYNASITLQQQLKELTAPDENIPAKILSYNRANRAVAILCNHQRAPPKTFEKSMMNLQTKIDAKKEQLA
T2 sequence (P11387 713-765 limits assumed): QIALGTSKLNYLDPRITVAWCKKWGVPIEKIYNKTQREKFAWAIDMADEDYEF

Topo I = conditions: Hsiang et al., Cancer Res 1989; cited from earlier work
[3] = Giovanella et al., Science 1989; cited from earlier work
[4] = unrestrained full matrix refinement of occupancy factors, standard uncertainty 7%

- binding mode in the crystal structure ([1]; Form 9-TTC, Form 9-AG260, Form 10 structures): intercalate at the site of DNA cleavage
- occupancy of closed lactone form in the bound complex [1, 4]: 63%
- occupancy of open carboxylate form in the bound complex [1, 4]: 37%
Structure (SMILES): CC[C@@]1(O)C(=O)OCc2c1cc1n(c2=O)Cc2cc3c(CN(C)C)c(O)ccc3nc2-1 [topotecan]
- relaxation-inhibition effect on linker-less Topo I [2]: resistant to the relaxation-inhibition effect

Structure (SMILES): CCOc1ccc(-c2nc3ccc(-c4nc5ccc(N6CCN(C)CC6)cc5[nH]4)cc3[nH]2)cc1 [Hoecsht-33342]
- binding site relative to camptothecin ([1]; Form 11 structure): do not bind at the same site as camptothecin

Structure (SMILES): CC[C@@](O)(C(=O)[O-])c1cc2n(c(=O)c1CO)Cc1cc3ccccc3nc1-2.[Na+] [sodium carboxylate form of camptothecin]
- Topo I inhibitory activity in vitro (Topo I): does have Topo I inhibitory activity in vitro
- activity in in vivo cell killing assays [3]: does have

From patent US20050003502A1 (priority 2000, published 2005)
